Measured values: patent publication US20230285570A1, “THERAPEUTICALLY USEFUL CURE-PRO MOLECULES FOR E3 LIGASE MEDIATED DEGRADATION OF PROTEINS, AND METHODS OF MAKING AND USING THEM” (CORNELL UNIVERSITY, priority 2020, published 2023)
Entries after “also recorded” stand apart in the source; their conditions may differ. Each block holds one compound with its values, some of them ahead of it.

How the values were obtained:
Format in all cases: cell-based
BRD4 [1] = target: T1, BRD4 (Homo sapiens, UniProt O60885); assay: CURE-PRO-mediated BRD4 degradation in HCT116 cells, WES (ProteinSimple); set-up: endogenous in cells; details: 1 μM-10 μM each
Method: (§1) All cell lines were purchased from ATCC or DSMZ and grown at 37° C. with 5% CO2. Human HeLa cells were cultured in complete growth medium (Dulbecco's modified Eagle's medium (DMEM) supplemented with 10% FBS); MCF7 cells were cultured in complete growth medium (Dulbecco's modified Eagle's medium (DMEM) supplemented with 10% FBS and 0.01 mg/ml human recombinant insulin (Sigma Aldrich); Namalwa and Ramos cells were cultured in complete growth medium (RPMI 1640 medium supplemented with 10% FBS); HCT116 and HT29 cells were cultured in complete growth medium (McCoy's 5a Medium supplemented with 10% FBS). For cellular degradation of BRD4 studies cells were seeded in a 12-well plate at 70-80% confluency, allowed to attach overnight, and incubated with the indicated compounds for the indicated time. When indicated, a 15-minute pretreatment with 10 μM pomalidomide, 10 μM VHL298, 10 μM Nutlin3a, 1 μM MG-132 or 1 μM Carfilzomib was performed before the addition of CURE-PROs. For washout studies, after CURE-PRO treatment, media was aspirated and incubated with complete medium for the indicated time before lysis.
(§2) WES Simple analysis was performed on WES system (ProteinSimple-Biotechne) according to the manufacturer's instructions. Total protein concentrations of cell lysates were determined by the Pierce BCA kit (Thermo Fisher). 3 μL of 0.3 μg/μL of the protein lysate was loaded onto a 12- to 230-kDa WES assay plate (ProteinSimple) where 300 nL sample was withdrawn through a capillary, subjected to electrophoretic separation of proteins by size, and followed by the simultaneous, HRP-based detection of proteins using the Anti-Rabbit Detection Module (Proteinsimple: #DM-001). The electropherograms were checked then the automatic peak detection was manually corrected if it was required.
(§3) HCT116 cells (3×10^6) were treated for 24 hours with the compounds solubilized in DMSO. Compounds were added at 1 μM-10 μM each. Standardized protein samples were electrophoresed and imaged as described in the WES ProteinSimple section above. FIGS. 59, 60, and 61 depict the concentration-dependence of CURE-PRO-mediated BRD4 degradation using MDM2 ligands.
as §3, with “62” for “59, 60,”, “63” for “61”
HCT116 cells (3×10^6) were treated for 24 hours with the compounds solubilized in DMSO. CURE-PRO monomers were added at 10 μM each and the proteasomal inhibitors at 1 μM. Standardized protein samples were electrophoresed and imaged as described in the WES ProteinSimple section above. FIG. 68 depicts the dependence of the proteasome for CURE-PRO-mediated BRD4 degradation.

BRD4 [2] = target: T1, BRD4; assay: Summary of BRD4 degradation by CURE-PRO pairs, estimated from Western Blot or WES; set-up: endogenous in cells; details: for Degradation of BRD4, combination with MDM2 ligand 8314: Table 2, aryl-boronic acid BRD4 ligand + 8314
Method: (§4) Namalwa, Ramosm HeLa, MCF7, or HT29 HCT116 cells (2.5-3×10^6) were treated for 24 hours with the indicated compounds solubilized in DMSO. The cells were washed in ice-cold PBS and were then lysed in RIPA lysis buffer (150 mM NaCl, 5 mM EDTA, 1% NP-40, 0.5% sodium deoxycholate, 0.1% SDS, 50 mM Tris, pH 8.0.) with Roche protease inhibitor complete cocktail and phosphatase inhibitors (10 mM sodium fluoride, 10 mM sodium pyrophosphate, 1 mM sodium orthovanadate and 20 mM β-glycerophosphate). The total protein concentrations were determined by Bradford Protein Assay (Pierce) and 10-20 μg of protein was loaded onto 4-15% Tris-Glycine gradient gels (Biorad). After standard gel electrophoresis, the separated proteins were transferred to PVDF membrane by wet transfer. The immunoblots were then blocked for 1 hour in 5% skim milk in TBST or 5% BSA in TBST, according to manufacturer's instructions, before an overnight incubation at 4° C. with indicated antibodies and membranes. Membranes were then incubated with the appropriate horseradish peroxidase-conjugated secondary antibodies (1:5,000 dilution) for 1 h at room temperature and the bands were visualized using the Clarity Max Western ECL Substrate (Biorad) and the ChemiDoc Imaging System (Biorad). Signal was detected with ECL Western Blotting Substrate (Pierce) and X-ray film processed with a Konica SRX-101 X-ray film processor or captured by Bio-Rad's Chemidoc Imaging system.
as §2
(§5) A black check mark indicates efficacy of 30% to 70% or higher protein degradation.

BRD4 [3] = target: T1, BRD4; assay: CURE-PRO-mediated BRD4 degradation in HeLa cells, Western blot; set-up: endogenous in cells; host or cells: HeLa; details: 24 h; for BRD4 degradation: 10 μM each
Method: as §1, §4
HeLa cells (2.5×10^6) were treated for 24 hours with the sample compounds solubilized in DMSO. Compounds were added at 1-10 μM each. Standardized protein samples were electrophoresed and imaged as described in the immunoblotting description above. FIGS. 6-18 depicts the CURE-PRO-mediated BRD4 degradation for BRD monomers (JQ1 derivatives comprising of catechol linkers), and CRBN ligands, 8048 and 8049 (pomalidomide derivatives comprising boronic acid linkers) combined in a 1:1 ratio.
HeLa cells (2.5×10^6) were treated for 24 hours with the compounds solubilized in DMSO. The compounds were added at 10 μM each. Standardized protein samples were electrophoresed and imaged as described in the immunoblotting section above. FIGS. 23-27 depicts the CURE-PRO-mediated BRD4 degradation for BRD monomers (JQ1 derivatives comprising of boronic acid linkers), and CRBN ligands, 8046, 8047 and 8066 (pomalidomide derivatives comprising diol linkers) combined in a 1:1 ratio.
HeLa cells (2.5×10^6) were treated for 24 hours with the compounds solubilized in DMSO. Compounds were added at 10 μM and 100 μM each. Standardized protein samples were electrophoresed and imaged as described in the immunoblotting section above.
HeLa cells (2.5×10^6) were treated for 24 hours with the compounds solubilized in DMSO. Compounds were added at 1 nM-1 μM each. […]

c-MYC [4] = target: T2, c-MYC (Homo sapiens, UniProt P01106); assay: CURE-PRO-mediated c-MYC degradation in HT29 cells, Western blot; set-up: endogenous in cells; host or cells: HT29
Method: as §4
HT29 cells (2.5×10^6) were treated for 24 h with the compounds solubilized in DMSO. Compounds were added at 10 nM-10 μM each, as indicated in the description of the figures. Standardized protein samples were electrophoresed and imaged as described in the immunoblotting section above. c-MYC monomers (10058-F4 derivatives comprising catechol linkers), and CRBN ligands, 8048 and 8049 (pomalidomide derivatives comprising boronic acid linkers) combined in a 1:1 ratio.
HT29 cells (2.5×10^6) were treated for 24 h with the compounds solubilized in DMSO. Compounds were added at 100 nM-10 μM each.
(§6) HT29 cells (2.5×10^6) were treated for 24 h with the compounds solubilized in DMSO. Compounds were added at 100 nM-10 μM each. Standardized protein samples were electrophoresed and imaged as described in the immunoblotting section above. c-MYC monomer, MYC-E1, (a 10058-F4 derivative comprising boronic acid linkers), and CRBN ligands, 8046, 8047 and 8066 (pomalidomide derivatives comprising diol linkers) combined in a 1:1 ratio.
as §6, with “monomers, MYC-E6 (FIG. 90), MYC-E10 (FIG. 91), and MYC-E16 (FIG. 92) (10074-G5 derivatives” for “monomer, MYC-E1, (a 10058-F4 derivative”
(§7) HT29 cells (2.5×10^6) were treated for 24 h with the compounds solubilized in DMSO. Compounds were added at 10 nM-10 μM each. Standardized protein samples were electrophoresed and imaged as described in the immunoblotting section above. c-MYC monomer, MYC-N16 (FIG. 93) (10074-G5 derivatives comprising diol linkers), and VHL ligands, 8297 and 8298 (VH-298 derivatives comprising boronic acid linkers) were combined in a 1:1 ratio.
as §7, with “monomers, MYC-E7” for “monomer, MYC-N16”, “96), MYC-E10 (FIG. 97), and MYC-E17 (FIG. 98),” for “93)”, “boronic acid” for “diol”, “diol” for “boronic acid”

c-MYC [5] = target: T2, c-MYC; assay: Summary of C-MYC degradation by CURE-PRO pairs, estimated from Western Blot or WES; set-up: endogenous in cells; host or cells: HT29
Method: as §4, §2, §5

[6] = 1:1 with MDM2 ligand 8313, HCT116, 24 h
[7] = 1:1 with MDM2 ligand 8314, HCT116, 24 h
[8] = 1:1 with CRBN ligand 8048, HT29, 24 h, 10 nM-10 μM each
[9] = c-MYC monomer alone, HT29, 24 h, 10 nM-10 μM

T2 sequence (P01106 whole entry): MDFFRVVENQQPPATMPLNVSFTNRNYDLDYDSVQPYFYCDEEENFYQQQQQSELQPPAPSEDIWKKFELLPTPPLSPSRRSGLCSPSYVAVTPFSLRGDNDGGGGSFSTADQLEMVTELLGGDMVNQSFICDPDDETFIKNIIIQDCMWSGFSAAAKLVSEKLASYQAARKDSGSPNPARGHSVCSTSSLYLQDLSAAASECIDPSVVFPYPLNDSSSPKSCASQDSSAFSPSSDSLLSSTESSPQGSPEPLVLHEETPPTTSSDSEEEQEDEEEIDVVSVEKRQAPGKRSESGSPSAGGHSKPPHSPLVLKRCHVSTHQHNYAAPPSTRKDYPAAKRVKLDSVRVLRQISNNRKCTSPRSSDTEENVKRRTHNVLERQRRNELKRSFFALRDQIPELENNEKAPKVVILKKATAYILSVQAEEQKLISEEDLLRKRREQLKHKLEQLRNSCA

Compound: COc1ccc2c(c1)C(c1ccc(Cl)cc1)=N[C@@H](CC(=O)NCCCCCNC(=O)c1cccc(B(O)O)c1)c1nnc(C)n1-2 [BRD-E8]
BRD4 degradation (BRD4 [1]; [6]): had no effect on BRD4 protein levels
BRD4 degradation (BRD4 [1]; [7]): caused partial loss of the BRD4 protein; also recorded: Degradation is observed
Degradation of BRD4, combination with CRBN ligand 8046 (BRD4 [2]; Table 1, aryl-boronic acid BRD4 ligand + 8046): √ (A black check mark indicates efficacy of 30% to 70% or higher protein degradation)
Degradation of BRD4, combination with CRBN ligand 8066 (BRD4 [2]; Table 1, aryl-boronic acid BRD4 ligand + 8066): √ (A black check mark indicates efficacy of 30% to 70% or higher protein degradation)
Degradation of BRD4, combination with MDM2 ligand 8314 (BRD4 [2]): √ (A black check mark indicates efficacy of 30% to 70% or higher protein degradation)
concentration-dependent BRD4 degradation (BRD4 [3]; 1:1 with CRBN ligand 8046, HeLa, 1 nM-1 μM each): Degradation is observed at 100 nM and 1 μM
BRD4 expression (BRD4 [3]; BRD monomer alone, HeLa, 1 nM-1 μM): no change in expression is observed
BRD4 degradation (BRD4 [3]; co-treated 1:1 with CRBN ligand 8046, HeLa): causes degradation of BRD4; also recorded: Degradation is noted
BRD4 degradation (BRD4 [3]; co-treated 1:1 with CRBN ligand 8066, HeLa): causes degradation of BRD4; also recorded: Degradation is noted

Compound: COc1ccc2c(c1)C(c1ccc(Cl)cc1)=N[C@@H](CC(=O)NCCc1ccc(B(O)O)cc1)c1nnc(C)n1-2 [BRD-E14, (4-(2-(2-((4S)-6-(4-chlorophenyl)-8-methoxy-1-methyl-4H-benzo[f][1,2,4]triazolo[4,3-a][1,4]diazepin-4-yl)acetamido)ethyl)phenyl)boronic acid]
BRD4 degradation (BRD4 [1]; [6]): had no effect on BRD4 protein levels
BRD4 degradation (BRD4 [1]; [7]): caused partial loss of the BRD4 protein; also recorded: Degradation is observed
Degradation of BRD4, combination with CRBN ligand 8047 (BRD4 [2]; Table 1, aryl-boronic acid BRD4 ligand + 8047): √ (A black check mark indicates efficacy of 30% to 70% or higher protein degradation)
Degradation of BRD4, combination with MDM2 ligand 8314 (BRD4 [2]): √ (A black check mark indicates efficacy of 30% to 70% or higher protein degradation)
Degradation of BRD4, combination with VHL ligand 8305 (BRD4 [2]; Table 3, aryl-boronic acid BRD4 ligand + 8305): √ (A black check mark indicates efficacy of 30% to 70% or higher protein degradation)
BRD4 degradation (BRD4 [3]; co-treated 1:1 with CRBN ligand 8047, HeLa): causes degradation of BRD4; also recorded: Degradation is noted

c-MYC degradation (c-MYC [4]; [8]): caused c-MYC degradation
c-MYC degradation (c-MYC [4]; [9]): there is no degradation of c-MYC
Compound: CCc1ccc(/C=C2\SC(=O)N(CC[C@H]3C[C@@H]4C[C@H]3[C@@H](O)[C@H]4O)C2=O)cc1 [MYC-N23]
Degradation of C-MYC, combination with CRBN ligand 8049 (c-MYC [5]; Table 10, aromatic 1,2-diol MYC ligand + 8049): √ (A black check mark indicates efficacy of 30% to 70% or higher protein degradation)

c-MYC degradation (c-MYC [4]; [8]): caused c-MYC degradation
c-MYC degradation (c-MYC [4]; [9]): there is no degradation of c-MYC
Compound: CCc1ccc(/C=C2\CC(=O)N(CCNC(=O)[C@H]3C[C@@H]4C[C@H]3[C@@H](O)[C@H]4O)C2=O)cc1 [MYC-N29]
Degradation of C-MYC, combination with CRBN ligand 8048 (c-MYC [5]; Table 10, aromatic 1,2-diol MYC ligand + 8048): √ (A black check mark indicates efficacy of 30% to 70% or higher protein degradation)
